IC50 data for eleven compounds are collected here from patent US20180148418A1, “AMIDO-SUBSTITUTED CYCLOHEXANE DERIVATIVES” (Bayer Pharma Aktiengesellschaft, priority 2015, published 2018).

Test [1] concerns HEK293 cells cotransfected with the FOP control vector. In words: HEK293 FOP assay (control reporter with non-functional TCF elements). In kind it is cell-based. As to conditions: Homo sapiens, 16 hours. The essentials: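 Stable HEK293 line carrying FOP control reporter (randomized non-functional TCF sites, with pcDNA3), Geneticin-selected, plated 24 h before assay. Stimulated with recombinant human Wnt-3a (2500-5 ng/ml) and compounds 50 μM–15 nM (3.16-fold steps) in CAFTY buffer pH 7.4 with 2 mM Ca2+, 0.01% BSA, run parallel to TOP line.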

The target of the next test is T1, TNKS1 (Homo sapiens, UniProt O95271).
T1 construct: purchased BPS Bioscience, San Diego, USA 80579 (TNKS1 Histone Ribosylation Assay Kit)
T1 sequence (O95271 1-1327): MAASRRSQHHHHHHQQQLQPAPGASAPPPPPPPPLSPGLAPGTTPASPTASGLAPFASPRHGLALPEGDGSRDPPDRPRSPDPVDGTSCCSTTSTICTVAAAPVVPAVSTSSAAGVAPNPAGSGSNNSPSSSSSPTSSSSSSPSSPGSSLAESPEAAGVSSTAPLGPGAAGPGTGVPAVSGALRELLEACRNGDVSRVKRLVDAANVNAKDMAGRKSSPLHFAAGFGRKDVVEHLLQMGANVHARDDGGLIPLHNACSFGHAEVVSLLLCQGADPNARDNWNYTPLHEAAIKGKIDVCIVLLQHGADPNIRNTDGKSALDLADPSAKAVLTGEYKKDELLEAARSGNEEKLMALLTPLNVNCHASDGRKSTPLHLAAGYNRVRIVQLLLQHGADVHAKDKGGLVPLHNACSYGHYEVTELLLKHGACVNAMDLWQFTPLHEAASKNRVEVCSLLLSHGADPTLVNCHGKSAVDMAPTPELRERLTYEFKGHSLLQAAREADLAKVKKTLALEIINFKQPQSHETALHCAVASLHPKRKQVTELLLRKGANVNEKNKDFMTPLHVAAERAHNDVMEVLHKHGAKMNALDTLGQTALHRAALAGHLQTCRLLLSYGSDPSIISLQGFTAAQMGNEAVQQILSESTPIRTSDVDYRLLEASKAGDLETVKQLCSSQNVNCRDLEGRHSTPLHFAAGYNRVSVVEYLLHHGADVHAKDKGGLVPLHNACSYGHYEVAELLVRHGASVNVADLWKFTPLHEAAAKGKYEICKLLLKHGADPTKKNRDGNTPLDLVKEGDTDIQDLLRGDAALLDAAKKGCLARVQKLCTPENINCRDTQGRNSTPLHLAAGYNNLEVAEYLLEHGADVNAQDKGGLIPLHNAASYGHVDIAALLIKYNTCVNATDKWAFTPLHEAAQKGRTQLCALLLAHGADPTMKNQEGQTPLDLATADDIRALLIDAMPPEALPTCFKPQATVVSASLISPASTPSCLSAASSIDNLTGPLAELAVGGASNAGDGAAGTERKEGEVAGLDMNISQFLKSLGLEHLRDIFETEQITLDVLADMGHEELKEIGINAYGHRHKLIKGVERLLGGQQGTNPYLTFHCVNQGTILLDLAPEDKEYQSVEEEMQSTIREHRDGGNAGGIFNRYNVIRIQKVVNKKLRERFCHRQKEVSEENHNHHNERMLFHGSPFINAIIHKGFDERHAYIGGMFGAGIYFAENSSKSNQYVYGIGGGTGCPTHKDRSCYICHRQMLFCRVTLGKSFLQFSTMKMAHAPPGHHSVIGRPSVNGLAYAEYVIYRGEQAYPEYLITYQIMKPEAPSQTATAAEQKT
In words: TNKS1 Assay B (auto-parsylation, [3H]-NAD+ SPA). The format is biochemical. As to conditions: 6 nM TNKS1, auto-parsylation, over night at room temperature.

Structures are written as SMILES.

`CNC(=O)c1[nH]cnc1C(=O)NC12CCC(C(=O)Nc3c(F)cc(F)cc3Cl)(CC1)CC2` [Example 116, N^4-{4-[(2-chloro-4,6-difluorophenyl)carbamoyl]bicyclo[2.2.2]oct-1-yl}-N^5-methyl-1H-imidazole-4,5-dicarboxamide]: the IC50 came to 8700 nM in test [1] and 580 nM against TNKS1.

Consider `O=C(NC12CCC(C(=O)Nc3ccc(F)cc3Cl)(CC1)CC2)c1cnn2cccnc12` [Example 117, N-{4-[(2-chloro-4-fluorophenyl)carbamoyl]bicyclo[2.2.2]oct-1-yl}pyrazolo[1,5-a]pyrimidine-3-carboxamide], for which the IC50 in test [1] was at least 50000 nM; against TNKS1, 340 nM.

On to `Cc1cc(NC(=O)C23CCC(NC(=O)c4cnn5cccnc45)(CC2)CC3)c(Cl)cc1F` [Example 118, N-{4-[(2-chloro-4-fluoro-5-methylphenyl)carbamoyl]bicyclo[2.2.2]oct-1-yl}pyrazolo[1,5-a]pyrimidine-3-carboxamide], for which the IC50 in test [1] is at least 50000 nM; on TNKS1 it was 89 nM.

For `O=C(NC12CCC(C(=O)Nc3c(F)cc(F)cc3Cl)(CC1)CC2)c1cnn2cccnc12` [Example 119, N-{4-[(2-chloro-4,6-difluorophenyl)carbamoyl]bicyclo[2.2.2]oct-1-yl}pyrazolo[1,5-a]pyrimidine-3-carboxamide], the IC50 is at least 50000 nM in test [1] and 560 nM against TNKS1.

Regarding `O=C(NC12CCC(C(=O)Nc3cnccc3Cl)(CC1)CC2)c1cnn2cccnc12` [Example 120, N-{4-[(4-chloropyridin-3-yl)carbamoyl]bicyclo[2.2.2]oct-1-yl}pyrazolo[1,5-a]pyrimidine-3-carboxamide], the IC50 in test [1] was determined as 7100 nM; against TNKS1, 210 nM.

Consider `O=C(NC12CCC(C(=O)Nc3ccc(F)cc3Cl)(CC1)CC2)c1cnc2cccnn12` [Example 121, N-{4-[(2-chloro-4-fluorophenyl)carbamoyl]bicyclo[2.2.2]oct-1-yl}imidazo[1,2-b]pyridazine-3-carboxamide], for which the IC50 was at least 50000 nM in test [1] and 400 nM against TNKS1.

`Cc1cc(NC(=O)C23CCC(NC(=O)c4cnc5cccnn45)(CC2)CC3)c(Cl)cc1F` [Example 122, N-{4-[(2-chloro-4-fluoro-5-methylphenyl)carbamoyl]bicyclo[2.2.2]oct-1-yl}imidazo[1,2-b]pyridazine-3-carboxamide]: the IC50 in test [1] is at least 50000 nM; against TNKS1 it was 240 nM.

`O=C(NC12CCC(C(=O)Nc3c(F)cc(F)cc3Cl)(CC1)CC2)c1cnc2cccnn12` [Example 123, N-{4-[(2-chloro-4,6-difluorophenyl)carbamoyl]bicyclo[2.2.2]oct-1-yl}imidazo[1,2-b]pyridazine-3-carboxamide]: the figures for the IC50 (in test [1]; against TNKS1) were at least 50000 nM and 1000 nM, respectively.

Take `O=C(NC12CCC(C(=O)Nc3cnccc3Cl)(CC1)CC2)c1cnc2cccnn12` [Example 124, N-{4-[(4-chloropyridin-3-yl)carbamoyl]bicyclo[2.2.2]oct-1-yl}imidazo[1,2-b]pyridazine-3-carboxamide]: the IC50 is 8900 nM in test [1] and 230 nM on TNKS1.

Regarding `Cc1cc(C)n2ncc(C(=O)NC34CCC(C(=O)Nc5ccc(F)cc5Cl)(CC3)CC4)c2n1` [Example 125, N-{4-[(2-chloro-4-fluorophenyl)carbamoyl]bicyclo[2.2.2]oct-1-yl}-5,7-dimethylpyrazolo[1,5-a]pyrimidine-3-carboxamide], the IC50 in test [1] is at least 50000 nM; against TNKS1, 120 nM.

Turning to `Cc1cc(C)n2ncc(C(=O)NC34CCC(C(=O)Nc5cc(C)c(F)cc5Cl)(CC3)CC4)c2n1` [Example 126, N-{4-[(2-chloro-4-fluoro-5-methylphenyl)carbamoyl]bicyclo[2.2.2]oct-1-yl}-5,7-dimethylpyrazolo[1,5-a]pyrimidine-3-carboxamide], the IC50 in test [1] was at least 50000 nM; against TNKS1, 82 nM.

Usually IC50 stands for the midpoint of a concentration-inhibition curve. Read a low IC50 as higher potency.
